What is called inhibition is the share of the control response that was lost under treatment. Read a low inhibition as a weak effect. As a reminder, the EC50 is the concentration giving half of the maximal effect. For orientation: solubility means the dissolved amount per volume that the medium holds. A low value points to a poorly soluble substance. What is called viability is a read-out of living cells in per cent, often relative to untreated cells. Lower therefore signals a greater loss of cells.

“And” between values parts separate entries of the source, which are not always exact repeats. Identical values can stand only once. Like-named read-outs stand apart in the source and are kept apart here. Bounds are passed on as bounds.

The subject of data set [1] is IκBα in HEK293 cells and NF-κB/Luc 293 reporter clone. In words: Western blot of phosphorylated-IκBα and total IκBα. The class given is cell-based, human. As to conditions: 50 and 500 nM, 1 hour pre-treatment, TNF-α 10 ng/mL 30 minutes. Here is the method:
Endogenous protein levels were assessed in both HEK293 cells and the NF-κB/Luc 293 reporter clone.
Antibodies against total and phosphorylated forms of IκBα were used to determine the endogenous level of each protein and anti-Tubulin antibody was used to confirm equal loading of protein.

The target of the next data set is CYP3A4 (Homo sapiens, UniProt P08684). Briefly: Preliminary P450 inhibition screen, CYP3A4. The source says:
(§1) These studies consisted of solubility assessment, LogD^7.4 determination and a preliminary screen to detect cytochrome P450 enzyme inhibition.

The next data set deals with SK-MEL-28 melanoma cells. Briefly: NCI screen, SK-MEL-28. To be noted: Homo sapiens, SK-MEL-28, read-out: LC50. The format is cell-based. As for the experimental part: A detailed description of the screening procedure can be found at hypertext transfer protocol (http://) “dtp.nci.nih.gov/branches/btb/ivclsp.html.”
In brief, each of the 60 human tumor cell lines were grown in RPMI 1640 medium, supplemented with 5% fetal bovine serum and 2 mM L-glutamine. Cells were plated at their appropriate density in 96-well microtiter plates and incubated at 37° C., 5% CO2, 95% air and 100% relative humidity. […] Cells were incubated for an additional 48 hours and a sulforhodamine B protein assay was used to estimate cell viability or growth.

A further data set has as its system DU 145 cells. In words: Cell growth inhibition (resazurin, 48 hours), DU 145. The class given is cell-based, human. As to conditions: for EC50: read-out: EC50 (nM), mean ± SD.
A further data set is described as follows: Solubility assessment. As to conditions: PBS, pH 7.4, aqueous buffer.
Description: as §1

In data set [2] the target is chymotrypsin-like activity of human erythrocyte 20S proteasomes (Homo sapiens, UniProt P28074). Briefly: biochemical. As to conditions: EC50, chymotrypsin-like activity of human erythrocyte 20S proteasomes, separate lots of proteasomes. Here is the method:
The substrate, suc-LLVY-AMC, was prepared as a 20 mM solution in DMSO and stored at −20° C. Human erythrocyte 20S proteasomes were obtained from BIOMOL (Cat. # SE-221). The proteasome can cleave suc-LLVY-AMC into suc-LLVY and free AMC and the activity can then be determined by measuring the fluorescence of the released AMC (λex=390 nm and λem=460 nm ). The proteasomes were activated by SDS and stored on ice as with the experiments using rabbit muscle proteasomes. […] The series was then diluted 20-fold with assay buffer and pre-incubated with proteasomes at 37° C. The reaction was initiated with substrate, and the release of AMC was followed in a Fluoroskan microplate fluorimeter. Data were collected and plotted as the mean of triplicate points.

In data set [3] the test system is PARP and Pro-Caspase 3 cleavage in PC-3 cells. In words: Cleavage of PARP and Pro-Caspase 3 (western blot), PC-3. The format is cell-based, human. As to conditions: 100 nM, 0, 8 or 24 hours. Here is the method:
Total protein lysates were made and 20 μg of the lysates were then resolved under reducing/denaturing conditions and blotted onto nitrocellulose. The blots were then probed with anti-PARP or anti-caspase 3 antibodies followed by stripping and reprobing with an anti-actin antibody.
(A western blot detects proteins with antibodies after separation by electrophoresis.)

Another data set addresses CYP2C9 (Homo sapiens, UniProt P11712). Briefly: Preliminary P450 inhibition screen, CYP2C9.
Description: as §1

A short description of data set [4]: Maximum Tolerated Dose (MTD) determination. The format is in vivo, BALB/c mice. The source says:
In vivo studies were designed to determine the MTD of Salinosporamide A when administered intravenously to female BALB/c mice.
Animals were observed daily for clinical signs and were weighed individually twice weekly until the end of the experiment (maximum of 14 days after the last day of dosing).

A further data set deals with CYP2C19 (Homo sapiens, UniProt P33261). Briefly: Preliminary P450 inhibition screen, CYP2C19.
Description: as §1

The subject of another data set is LPS-induced plasma TNF. Briefly: Inhibition of in vivo LPS-induced TNF. As to conditions: 0.125 or […] i.v., 30 minutes post-LPS (2 mg/kg i.p.), mice. Here is the method: Male Swiss Webster mice (12/group weighing 20-25 g) were injected with LPS (2 mg/kg) by the i.p. route. […] Ninety minutes after LPS injection, the mice were anesthetized with Isoflurane and bled by cardiac puncture to obtain plasma. Remaining blood pellet was then resuspended in 500 μL of PBS to wash away residual serum proteins and centrifuged again. Supernatant was removed and blood pellet frozen for analysis of proteasome inhibition in packed whole blood lysate.
Animals were dosed i.v. with 4 ml/kg. A vehicle control solution was also prepared by making the same 1:160 dilution with 100% DMSO into 10% solutol solution giving a final concentration of 9.375% solutol in water and 0.625% DMSO. Measurements of plasma TNF were performed using the Biosource mTNF Cytoset kit (Biosource Intl., Camarillo, Calif.; catalog #CMC3014) according to manufacturer's instructions. Samples were diluted 1:60 for the assay.

Data set [5] deals with LeTx-induced cytotoxicity of RAW264.7 cells.
A further data set in a line: in vitro. As to conditions: mouse.

Sequence of CYP3A4 (P08684 whole entry): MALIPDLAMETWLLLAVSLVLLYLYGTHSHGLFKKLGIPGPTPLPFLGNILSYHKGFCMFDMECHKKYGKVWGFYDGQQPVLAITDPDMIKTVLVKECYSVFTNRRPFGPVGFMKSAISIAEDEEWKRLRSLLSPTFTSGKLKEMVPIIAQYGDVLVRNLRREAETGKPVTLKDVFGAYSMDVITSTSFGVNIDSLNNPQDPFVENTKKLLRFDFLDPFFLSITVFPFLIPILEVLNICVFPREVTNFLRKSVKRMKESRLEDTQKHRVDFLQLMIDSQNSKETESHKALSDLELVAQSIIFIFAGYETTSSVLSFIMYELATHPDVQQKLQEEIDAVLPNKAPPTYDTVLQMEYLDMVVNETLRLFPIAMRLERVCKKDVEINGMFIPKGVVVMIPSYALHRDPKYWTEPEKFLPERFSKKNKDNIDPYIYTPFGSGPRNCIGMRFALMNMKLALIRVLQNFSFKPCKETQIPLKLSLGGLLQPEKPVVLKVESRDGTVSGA
Sequence of CYP2C9 (P11712 whole entry): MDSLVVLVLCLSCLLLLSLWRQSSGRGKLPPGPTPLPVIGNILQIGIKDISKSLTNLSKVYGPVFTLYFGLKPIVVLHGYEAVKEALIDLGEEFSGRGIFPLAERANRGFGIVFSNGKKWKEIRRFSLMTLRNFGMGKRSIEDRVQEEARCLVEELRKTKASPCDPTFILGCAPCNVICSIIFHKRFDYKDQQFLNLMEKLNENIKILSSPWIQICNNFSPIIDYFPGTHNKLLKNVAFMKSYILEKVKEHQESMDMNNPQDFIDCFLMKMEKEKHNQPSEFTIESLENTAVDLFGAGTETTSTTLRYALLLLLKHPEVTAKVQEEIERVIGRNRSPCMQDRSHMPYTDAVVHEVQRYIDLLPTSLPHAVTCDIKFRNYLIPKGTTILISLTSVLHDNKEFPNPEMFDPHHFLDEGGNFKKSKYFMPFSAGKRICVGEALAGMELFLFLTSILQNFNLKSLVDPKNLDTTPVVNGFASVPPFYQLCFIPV
Sequence of CYP2C19 (P33261 whole entry): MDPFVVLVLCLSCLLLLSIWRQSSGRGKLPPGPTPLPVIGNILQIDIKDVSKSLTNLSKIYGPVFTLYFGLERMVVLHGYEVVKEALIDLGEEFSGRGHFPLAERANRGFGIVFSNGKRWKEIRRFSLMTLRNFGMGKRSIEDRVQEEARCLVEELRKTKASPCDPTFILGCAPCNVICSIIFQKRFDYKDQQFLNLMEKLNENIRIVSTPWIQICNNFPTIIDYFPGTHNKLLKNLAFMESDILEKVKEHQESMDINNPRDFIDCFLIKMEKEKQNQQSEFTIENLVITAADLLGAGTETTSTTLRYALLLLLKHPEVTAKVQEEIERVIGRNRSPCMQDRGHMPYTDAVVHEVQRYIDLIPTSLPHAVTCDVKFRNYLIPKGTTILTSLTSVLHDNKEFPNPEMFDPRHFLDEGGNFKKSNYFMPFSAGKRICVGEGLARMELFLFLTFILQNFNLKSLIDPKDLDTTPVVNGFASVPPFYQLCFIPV

Consider `C[C@@]12OC(=O)[C@]1([C@@H](O)[C@@H]1C=CCCC1)NC(=O)[C@@H]2CCCl` [Formula II-16, Salinosporamide A], for which the “degradation of total IκBα and phospho-IκBα level” value in data set [1] is “reduced the degradation of total IκBα but also retained the phospho-IκBα level”. Moreover, the figures for the inhibition at 10 µM on CYP3A4, on CYP2C9 and against CYP2C19 were 6%, 6% and 22%, respectively. The CC50 in the data set on SK-MEL-28 melanoma cells is under 10 nM. In addition, the EC50 with DU 145 cells (Homo sapiens, Table 6, DU 145 (n = 3)) was 37 ± 10 nM; with DU 145 cells (Table 2, DU 145, human prostate carcinoma, 48 hours), 37 ± 10 nM; in [2], ~0.25 nM and 0.045 to 0.247 nM and 0.045 to 0.25 nM; in [5] (read-out: average EC50, viability of LeTx-treated cells) it was 3.6 nM. The “% cytotoxicity, mean ± SD” value with DU 145 cells (Table 6, DU 145 (n = 3)) is recorded as 75 ± 4%. The solubility in the data set “Solubility assessment” is 9.6 µM and 3 µg/mL. In addition, the “cleavage of PARP” value in data set [3] was “noticeable at 24 hours”. In addition, in data set [3], the “cleavage of Pro-Caspase 3” value is on record as “not detected”. The “behavioral changes during the course of the experiment” value in [4] (0.01 to 0.5 mg/kg i.v.) is recorded as “No behavioral changes were noted”. For the same compound, the “dose well tolerated when administered daily for five consecutive days” value in data set [4] (i.v., qdx5, female BALB/c mice) is reported as “up to 0.1 mg/kg”. In addition, the “single intravenous dose tolerated” value in data set [4] (i.v., single dose (qdx1), female BALB/c mice) is on record as “up to 0.25 mg/kg”. Also, in the data set with LPS-induced plasma TNF, the “reduction of LPS-induced plasma TNF levels” value is given as “approximately 65%”. For the same compound, in data set [5], the “cell-viability, compound + LeTx” value is recorded as 82%. Moreover, in data set [5], the “increase in the viability of LeTx-treated cells compared to LeTx treatment alone” value was 10 fold. The compound also came in with a viability at […] in the data set “in vitro” of 96%.
